Legend:
[1] = tested on: wheat; assay: Test B preemergence/postemergence greenhouse plant response rating 0 to 10; assay type: in vivo, Triticum aestivum; conditions: 0 to 10 scale
In short: (§1)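 Test chemicals, dissolved in a non-phytotoxic solvent, were applied to soil at planting and, at the same time, over foliage of seedlings at the one to four leaf stage.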

[2] = tested on: sorghum; assay: Test C preemergence/postemergence greenhouse plant response rating 0 to 100; assay type: in vivo, Sorghum bicolor; conditions: POSTEMERGENCE
Description: (§2) The compounds evaluated in this test were formulated in a non-phytoxic solvent and applied to the soil surface before plant seedlings emerged (preemergence application), to water that covered the soil surface (flood application), and to plants that were in the one-to-four leaf stage (postemergence application). A sandy loam soil was used for the preemergence and postemergence tests, while a silt loam soil was used in the flood test. Water depth was approximately 2.5 cm for the flood test and was maintained at this level for the duration of the test. Plant species in the preemergence and postemergence tests consisted of barley (Hordeum vulgare), bedstraw (Galium aparine), blackgrass (Alopecurus myosuroides), chickweed (Stellaria media), corn (Zea mays), cotton (Gossypium hirsutum), crabgrass (Digitaria sanguinalis), downy brome (Bromus tectorum), giant foxtail (Setaria faberii), lambsquarters (Chenopodium album), morningglory (Ipomoea hederacea), pigweed ([…]), rape (Brassica napus), ryegrass (Lolium multiflorum), sorghum (Sorghum bicolor), soybean (Glycine max), speedwell (Veronica persica), sugar beet (Beta vulgaris), velvetleaf (Abutilon theophrasti), wheat (Triticum aestivum), wild buckwheat (Polygonum convolvulus), and wild oat (Avena fatua). All plant species were planted one day before application of the compound for the preemergence portion-of this test. Plantings of these species were adjusted to produce plants of appropriate size for the post-emergence portion of the test. […] All plant species were grown using normal greenhouse practices. Visual evaluations of injury expressed on treated plants, when compared to untreated controls, were recorded approximately fourteen to twenty one days after application of the test compound. […] A dash (-) response means no test result.

[3] = tested on: bedstraw; assay: as above; assay type: in vivo, Galium aparine; conditions: POSTEMERGENCE
Description: as §2

[4] = tested on: lambsquarters; assay: Test B preemergence/postemergence greenhouse plant response rating 0 to 10; assay type: in vivo, Chenopodium album; conditions: 0 to 10 scale
In short: as §1

[5] = tested on: cheatgrass; assay: as above; assay type: in vivo, Bromus secalinus; conditions: for Plant response rating, Cheatgrass: 0 to 10 scale
In short: as §1

[6] = tested on: downy brome; assay: Test C preemergence/postemergence greenhouse plant response rating 0 to 100; assay type: in vivo, Bromus tectorum; conditions: POSTEMERGENCE
Description: as §2

[7] = tested on: sugar beet; assay: as above; assay type: in vivo, Beta vulgaris; conditions: POSTEMERGENCE
Description: as §2

[8] = tested on: velvetleaf; assay: as above; assay type: in vivo, Abutilon theophrasti; conditions: POSTEMERGENCE
Description: as §2

[9] = tested on: cotton; assay: Test B preemergence/postemergence greenhouse plant response rating 0 to 10; assay type: in vivo, Gossypium hirsutum; conditions: for Plant response rating, Cotton: 0 to 10 scale
In short: as §1

[10] = tested on: lambsquarters; assay: Test C preemergence/postemergence greenhouse plant response rating 0 to 100; assay type: in vivo, Chenopodium album; conditions: POSTEMERGENCE
Description: as §2

[11] = tested on: corn; assay: Test B preemergence/postemergence greenhouse plant response rating 0 to 10; assay type: in vivo, Zea mays; conditions: for Plant response rating, Corn: 0 to 10 scale
In short: as §1

[12] = tested on: cotton; assay: Test C preemergence/postemergence greenhouse plant response rating 0 to 100; assay type: in vivo, Gossypium hirsutum; conditions: POSTEMERGENCE
Description: as §2

[13] = tested on: wild oat; assay: Test B preemergence/postemergence greenhouse plant response rating 0 to 10; assay type: in vivo, Avena fatua; conditions: 0 to 10 scale
In short: as §1

[14] = tested on: crabgrass; assay: Test C preemergence/postemergence greenhouse plant response rating 0 to 100; assay type: in vivo, Digitaria sanguinalis; conditions: POSTEMERGENCE
Description: as §2

[15] = tested on: rice; assay: Test B preemergence/postemergence greenhouse plant response rating 0 to 10; assay type: in vivo, Oryza sativa; conditions: 0 to 10 scale
In short: as §1

[16] = tested on: giant foxtail; assay: Test C preemergence/postemergence greenhouse plant response rating 0 to 100; assay type: in vivo, Setaria faberii; conditions: POSTEMERGENCE
Description: as §2

C#CCN1C(=O)COc2cc(F)c(-c3nn4c(c3Br)CCCC4)cc21 [Compound 56]
Plant response rating, Wheat ([1]; POSTEMERGENCE, Rate 10 g/ha): 7
Plant response rating, Wheat ([1]; POSTEMERGENCE, Rate 50 g/ha): 7
Plant response rating, Wheat ([1]; PREEMERGENCE, Rate 50 g/ha): 4
Plant response rating, Sorghum ([2]; 62 g/ha, 0 to 100 scale): 60
Plant response rating (0 to 100), Sorghum ([2]; Rate 1 g/ha): 20
Plant response rating (0 to 100), Sorghum ([2]; Rate 4 g/ha): 30
Plant response rating (0 to 100), Sorghum ([2]; Rate 16 g/ha): 50
Plant response rating, Bedstraw ([3]; 62 g/ha, 0 to 100 scale): 100
Plant response rating (0 to 100), Bedstraw ([3]; Rate 1 g/ha): 70
Plant response rating (0 to 100), Bedstraw ([3]; Rate 4 g/ha): 80
Plant response rating (0 to 100), Bedstraw ([3]; Rate 16 g/ha): 95
Plant response rating, Lambsquarter ([4]; POSTEMERGENCE, Rate 10 g/ha): 10
Plant response rating, Lambsquarter ([4]; POSTEMERGENCE, Rate 50 g/ha): 10
Plant response rating, Lambsquarter ([4]; PREEMERGENCE, Rate 50 g/ha): 10
Plant response rating, Cheatgrass ([5]; POSTEMERGENCE, Rate 10 g/ha): 5
Plant response rating, Cheatgrass ([5]; POSTEMERGENCE, Rate 50 g/ha): 6
Plant response rating, Cheatgrass ([5]; PREEMERGENCE, Rate 10 g/ha): 5
Plant response rating, Cheatgrass ([5]; PREEMERGENCE, Rate 50 g/ha): 5
Plant response rating Downy Brome ([6]; 62 g/ha, 0 to 100 scale): 70
Plant response rating (0 to 100), Downy Brome ([6]; Rate 1 g/ha): 40
Plant response rating (0 to 100), Downy Brome ([6]; Rate 4 g/ha): 50
Plant response rating (0 to 100), Downy Brome ([6]; Rate 16 g/ha): 60
Plant response rating, Sugar beet ([7]; 62 g/ha, 0 to 100 scale): 100
Plant response rating (0 to 100), Sugar beet ([7]; Rate 1 g/ha): 100
Plant response rating (0 to 100), Sugar beet ([7]; Rate 4 g/ha): 100
Plant response rating (0 to 100), Sugar beet ([7]; Rate 16 g/ha): 100
Plant response rating, Velvetleaf ([8]; 62 g/ha, 0 to 100 scale): 100
Plant response rating (0 to 100), Velvetleaf ([8]; Rate 1 g/ha): 100
Plant response rating (0 to 100), Velvetleaf ([8]; Rate 4 g/ha): 100
Plant response rating (0 to 100), Velvetleaf ([8]; Rate 16 g/ha): 100
Plant response rating, Cotton ([9]; POSTEMERGENCE, Rate 10 g/ha): 10
Plant response rating, Cotton ([9]; POSTEMERGENCE, Rate 50 g/ha): 10
Plant response rating, Cotton ([9]; PREEMERGENCE, Rate 10 g/ha): 0
Plant response rating, Cotton ([9]; PREEMERGENCE, Rate 50 g/ha): 0
Plant response rating Lambsquarters ([10]; 62 g/ha, 0 to 100 scale): 100
Plant response rating (0 to 100), Lambsquarters ([10]; Rate 1 g/ha): 85
Plant response rating (0 to 100), Lambsquarters ([10]; Rate 4 g/ha): 100
Plant response rating (0 to 100), Lambsquarters ([10]; Rate 16 g/ha): 100
Plant response rating, Corn ([11]; POSTEMERGENCE, Rate 50 g/ha): 3
Plant response rating, Corn ([11]; PREEMERGENCE, Rate 50 g/ha): 0
Plant response rating, Cotton ([12]; 62 g/ha, 0 to 100 scale): 100
Plant response rating (0 to 100), Cotton ([12]; Rate 1 g/ha): 100
Plant response rating (0 to 100), Cotton ([12]; Rate 4 g/ha): 100
Plant response rating (0 to 100), Cotton ([12]; Rate 16 g/ha): 100
Plant response rating, Wild oat ([13]; POSTEMERGENCE, Rate 10 g/ha): 6
Plant response rating, Wild oat ([13]; POSTEMERGENCE, Rate 50 g/ha): 6
Plant response rating, Wild oat ([13]; PREEMERGENCE, Rate 50 g/ha): 5
Plant response rating, Crabgrass ([14]; 62 g/ha, 0 to 100 scale): 20
Plant response rating (0 to 100), Crabgrass ([14]; Rate 1 g/ha): 0
Plant response rating (0 to 100), Crabgrass ([14]; Rate 4 g/ha): 0
Plant response rating (0 to 100), Crabgrass ([14]; Rate 16 g/ha): 10
Plant response rating, Rice ([15]; POSTEMERGENCE, Rate 10 g/ha): 3
Plant response rating, Rice ([15]; POSTEMERGENCE, Rate 50 g/ha): 4
Plant response rating, Rice ([15]; PREEMERGENCE, Rate 50 g/ha): 0
Plant response rating, Giant foxtail ([16]; 62 g/ha, 0 to 100 scale): 40
Plant response rating (0 to 100), Giant foxtail ([16]; Rate 1 g/ha): 10
Plant response rating (0 to 100), Giant foxtail ([16]; Rate 4 g/ha): 10
Plant response rating (0 to 100), Giant foxtail ([16]; Rate 16 g/ha): 30

CCS(=O)(=O)Oc1cc(-c2nn3c(c2Cl)CCCC3)c(F)cc1Cl [Compound 25]
Plant response rating, Wheat ([1]; POSTEMERGENCE, Rate 50 g/ha): 3
Plant response rating, Wheat ([1]; POSTEMERGENCE, Rate 200 g/ha): 4
Plant response rating, Wheat ([1]; PREEMERGENCE, Rate 50 g/ha): 0
Plant response rating, Wheat ([1]; Rate 200 g/ha, PREEMERGENCE): 2
Plant response rating, Lambsquarter ([4]; POSTEMERGENCE, Rate 50 g/ha): 9
Plant response rating, Lambsquarter ([4]; POSTEMERGENCE, Rate 200 g/ha): 10
Plant response rating, Lambsquarter ([4]; PREEMERGENCE, Rate 50 g/ha): 9
Plant response rating, Lambsquarter ([4]; Rate 200 g/ha, PREEMERGENCE): 10
Plant response rating (0 to 10 scale), Cheatgrass ([5]; POSTEMERGENCE, Rate 50 g/ha): 3
Plant response rating, Cheatgrass ([5]; POSTEMERGENCE, Rate 200 g/ha): 3
Plant response rating, Cheatgrass ([5]; PREEMERGENCE, Rate 50 g/ha): 0
Plant response rating, Cheatgrass ([5]; Rate 200 g/ha, PREEMERGENCE): 3
Plant response rating (0 to 10 scale), Cotton ([9]; POSTEMERGENCE, Rate 50 g/ha): 10
Plant response rating, Cotton ([9]; POSTEMERGENCE, Rate 200 g/ha): 10
Plant response rating, Cotton ([9]; PREEMERGENCE, Rate 50 g/ha): 4
Plant response rating, Cotton ([9]; Rate 200 g/ha, PREEMERGENCE): 5
Plant response rating (0 to 10 scale), Corn ([11]; POSTEMERGENCE, Rate 50 g/ha): 3
Plant response rating, Corn ([11]; POSTEMERGENCE, Rate 200 g/ha): 6
Plant response rating, Corn ([11]; PREEMERGENCE, Rate 50 g/ha): 0
Plant response rating, Corn ([11]; Rate 200 g/ha, PREEMERGENCE): 0
Plant response rating, Wild oat ([13]; POSTEMERGENCE, Rate 50 g/ha): 3
Plant response rating, Wild oat ([13]; POSTEMERGENCE, Rate 200 g/ha): 4
Plant response rating, Wild oat ([13]; Rate 200 g/ha, PREEMERGENCE): 4
Plant response rating, Rice ([15]; POSTEMERGENCE, Rate 50 g/ha): 4
Plant response rating, Rice ([15]; POSTEMERGENCE, Rate 200 g/ha): 9
Plant response rating, Rice ([15]; PREEMERGENCE, Rate 50 g/ha): 0
Plant response rating, Rice ([15]; Rate 200 g/ha, PREEMERGENCE): 0

Source: patent US6358885B1, “Substituted phenylheterocyclic herbicides” (Mississippi State University, priority 1992, dated 2002)
